According to patent publication US20110217265A1, “Screening for Inhibitors of HCV Amphipathic Helix (AH) Function” (priority 2008, published 2011):
Entries after “also recorded” stand apart in the source; their conditions may differ.

Experiments:
[1] = target: genotype 1b 4BAH2 (Hepatitis C virus genotype 1b, UniProt Q9WMX2); assay: DLS assay of 4BAH2-induced POPC lipid vesicle aggregation, genotype 1b peptide; format: biochemical; set-up: purchased Anaspec Corporation (San Jose, Calif., USA); host or cells: chemical synthesis; settings: POPC vesicles
Experimental: Dynamic light scattering. Dynamic light scattering was performed by a 90Plus particle size analyzer, and the results were analyzed by digital autocorrelator software (Brookhaven Instruments Corporation, New York). All measurements were taken at a scattering angle of 90°, where the reflection effect is minimized. Dynamic light scattering (DLS) is a well established technique for measuring particle size over the size range from a few nanometers to a few microns. The concept uses the idea that small particles in a suspension move in a random pattern, i.e., Brownian motion. When a coherent source of light (such as a laser) having a known frequency is directed at the moving particles, the light is scattered at a different frequency. The shift in light frequency is related to the size of the particles causing the shift. Due to their higher average velocity, smaller particles cause a greater shift in the light frequency than larger particles. […]
Dynamic Light Scattering. Dynamic light scattering (DLS) was performed using a doubled, Nd:YAG laser (model 532 DPSS, Coherent Laser Group, Santa Clara, Calif.) with a wavelength, λ, of […] and a Brookhaven digital autocorrelator, and analyzed by digital autocorrelator software (Brookhaven Instruments Corporation, New York, USA). […] DLS results were analyzed to give an intensity-weighted size distribution using a discrete Laplace inversion routine. […]

[2] = test system: subgenomic genotype 1b replicon RNA (Bart79ILuc); assay: Transient genotype 1b subgenomic replicon (Bart79I-luc) luciferase replication assay in Huh7.5 cells; format: cell-based, Hepatitis C Virus genotype 1b; settings: luciferase at 72 hr of treatment
Source text: Plasmids. Bart79I, a high-efficiency subgenomic replicon of HCV (28), harbors the neomycin resistance gene (neo) and the HCV nonstructural proteins. The Bart-Luciferase plasmid, Bart79I-luc, was cloned from the Bart791 parent (29) and the pGL3-Basic parent (Promega). In brief, a NotI site was introduced after the 15th amino acid of Core in Bart791 using PCR mutagenesis. The plasmid pcDNA3.1-NS4B, which encodes the Con1 NS4B sequence and was used to study the protein stability of the wild type and mutant NS4Bs, was described previously. […]
Transient Replication Assays. […] Firefly luciferase activities were measured at 8, 48, 96, and 144 hr post electroporation by using a firefly luciferase kit from Promega (Madison, Wis.).
Antiviral Assays of Compounds. […] Plates were then scanned and fluorescence was detected by using a FLEXstation II 384 (Molecular Devices). […] Viral RNA replication was determined using Renilla (FL-J6/JFH-5′C19Rluc2AUbi) or firefly (Bart791-luc) luciferase assays, according to the manufacturer's (Promega) directions. The same samples subjected to the viability assay described below were analyzed in this assay. […] Luminescence was measured over 10 seconds with a 2-second delay using a Berthold LB 96 V luminometer. […]

Chain of genotype 1b 4BAH2 (Q9WMX2 1754-1776): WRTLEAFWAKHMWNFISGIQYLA

CC(C)CN(C)c1nc(N)c(C(=O)NC(=N)N)nc1Cl [C4, 3-amino-N-carbamimidoyl-6-chloro-5-(isobutyl(methyl)amino)pyrazine-2-carboxamide]
Inhibition of genotype 1b 4BAH2-mediated vesicle aggregation (DLS) [1]: inhibited genotype 1b 4BAH2-mediated vesicle aggregation
Inhibition of HCV genotype 1b genome replication [2]: inhibits HCV replication; also recorded: dose-dependent inhibition
